# Measured values published in patent publication US4537956A, “Antibiotics X-14889 A, C and D” (Hoffmann-La Roche Inc., priority 1983, dated 1985).
# How the values were obtained:
# Assay in all cases: MIC in vitro, agar diffusion well method
# Type in all cases: cell-based
# [1] = system: Streptomyces cellulosae ATCC 3313; conditions: Streptomyces cellulosae ATCC 3313, agar diffusion well method
# Text: (§1) Minimal inhibitory concentration (mcg/ml)
# (§2) *As determined by an agar diffusion well method.
# [2] = system: Saccharomyces cerevisiae ATCC 4226; conditions: Saccharomyces cerevisiae ATCC 4226, agar diffusion well method
# Text: as §1, §2
# [3] = system: Streptococcus faecium ATCC 8043; conditions: Streptococcus faecium ATCC 8043, agar diffusion well method
# Text: as §1, §2
# [4] = system: Bacillus sp. E ATCC 27359; conditions: Bacillus sp. E ATCC 27359, agar diffusion well method
# Text: as §1, §2
# [5] = system: Bacillus sp. TA ATCC 27860; conditions: Bacillus sp. TA ATCC 27860, agar diffusion well method
# Text: as §1, §2
# [6] = system: Penicillium digitatum ATCC 26821; conditions: Penicillium digitatum ATCC 26821, agar diffusion well method
# Text: as §1, §2
# [7] = system: Staphylococcus aureus ATCC 6538P
# Text: as §1, §2
# [8] = system: Bacillus subtilis ATCC 558; conditions: Bacillus subtilis ATCC 558, agar diffusion well method
# Text: as §1, §2
# [9] = system: Mycobacterium phlei ATCC 355; conditions: Mycobacterium phlei ATCC 355, agar diffusion well method
# Text: as §1, §2
# [10] = system: Candida albicans NRRL 477; conditions: Candida albicans NRRL 477, agar diffusion well method
# Text: as §1, §2
# [11] = system: Bacillus megaterium ATCC 8011; conditions: Bacillus megaterium ATCC 8011, agar diffusion well method
# Text: as §1, §2
# [12] = system: Paecilomyces varioti ATCC 28820; conditions: Paecilomyces varioti ATCC 28820, agar diffusion well method
# Text: as §1, §2
compound,measurement,setting,value
CC[C@H](C(=O)[C@@H](C)[C@@H](O)[C@H](C)[C@H]1O[C@@](O)(CC)[C@@H](C)C[C@@H]1C)[C@H]1O[C@](C)(C23OC(C)C(CC)(CC2C)O3)C[C@@H]1C (stereo partly drawn) [Antibiotic X-14889D],Minimal inhibitory concentration,[1],1000 µg/mL
same,Minimal inhibitory concentration,[2],1000 µg/mL
same,Minimal inhibitory concentration,[3],125 µg/mL
same,Minimal inhibitory concentration,[4],7.9 µg/mL
same,Minimal inhibitory concentration,[5],1000 µg/mL
same,Minimal inhibitory concentration,[6],1000 µg/mL
same,Minimal inhibitory concentration,[7],125 µg/mL
same,Minimal inhibitory concentration,[8],1000 µg/mL
same,Minimal inhibitory concentration,[9],1000 µg/mL
same,Minimal inhibitory concentration,[10],1000 µg/mL
same,Minimal inhibitory concentration,[11],1000 µg/mL
same,Minimal inhibitory concentration,[12],1000 µg/mL
